These results are taken from US20190106460A1, “BINDING INHIBITORS OF THE BETA. TRANSDUCIN REPEAT-CONTAINING PROTEIN” (priority 2011, published 2019).

Read-outs that look alike come from different tables or passages of the source. Starred links: 1 amine or outer side, 2 acyl side, 3 side chain; linkers in the order of their positions; H or OH if unused. Non-standard residues stand in square brackets, D forms with d. Residues, ends and D or L forms follow the SMILES beside them. *: point of attachment. Phe(3-F) = N[C@@H](Cc1cccc(F)c1)C(=O)O; 1Nal = N[C@@H](Cc1cccc2ccccc12)C(=O)O; Suc = O=C(CCC(=O)[*:2])[*:1]; Propionyl = CCC(=O)*; Bz = O=C(c1ccccc1)*

Assay [1] deals with βTrCP (Homo sapiens, UniProt Q9Y297). The assay is described as follows: Fluorescence polarisation (FP) binding assay with fluorescein-tagged IκB peptide.
Target sequence in this assay (P63208 whole entry partner, one chain of several): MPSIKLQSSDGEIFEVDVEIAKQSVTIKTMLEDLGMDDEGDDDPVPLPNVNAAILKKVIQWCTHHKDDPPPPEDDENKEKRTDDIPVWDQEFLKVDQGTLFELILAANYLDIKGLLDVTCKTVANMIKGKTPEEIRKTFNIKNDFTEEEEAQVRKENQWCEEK
Assay [2] addresses T1, βTrCP (Homo sapiens, UniProt Q9Y297).
T1 sequence (Q9Y297 1-605): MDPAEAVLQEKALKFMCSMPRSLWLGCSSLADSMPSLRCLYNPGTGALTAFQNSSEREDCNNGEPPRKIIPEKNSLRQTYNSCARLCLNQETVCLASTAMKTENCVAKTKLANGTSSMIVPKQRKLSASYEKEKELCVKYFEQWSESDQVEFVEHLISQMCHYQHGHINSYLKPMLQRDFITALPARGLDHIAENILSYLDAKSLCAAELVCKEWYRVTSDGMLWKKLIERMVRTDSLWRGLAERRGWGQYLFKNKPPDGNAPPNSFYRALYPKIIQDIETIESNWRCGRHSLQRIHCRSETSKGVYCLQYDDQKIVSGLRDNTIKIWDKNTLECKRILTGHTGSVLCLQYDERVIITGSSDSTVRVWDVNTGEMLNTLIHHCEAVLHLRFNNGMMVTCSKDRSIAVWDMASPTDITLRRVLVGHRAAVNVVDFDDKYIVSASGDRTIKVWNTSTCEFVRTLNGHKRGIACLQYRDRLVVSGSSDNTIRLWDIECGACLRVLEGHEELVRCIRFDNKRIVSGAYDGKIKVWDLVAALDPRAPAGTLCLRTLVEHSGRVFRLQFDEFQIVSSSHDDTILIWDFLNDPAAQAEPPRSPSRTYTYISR
The assay is described as follows: Biotin pull down assay with biotinylated IκB peptide. Format: binding. The settings on record: for Biotin Pulldown Assay 10 μM: 10 μM compound; for Biotin Pulldown Assay 100 μM: 100 μM compound.

A further assay addresses β-TrCP1/Skp1 (Homo sapiens, UniProt Q9Y297). The assay is described as follows: βTrCP ubiquitination assay (Ub assay). Format: biochemical. The settings on record: for Ub Assay 10 μM: 10 μM compound; for Ub Assay 100 μM: 100 μM compound. The procedure:
(§1) βTrCP Ubiquitination Assay and Selectivity Assays
0.5 μM Peptide substrate (biotin)
(§2) Master mixes were prepared in a 50 mM Herpes buffer at pH 7.5, in 75 mM NaCl and 1 mM DTT without Mg or ATP and peptides were added to a final concentration of 100 μM. Reactions were incubated at room temperature for 30 minutes and then Mg/ATP was added to the mix. Reactions were further incubated for an additional 60 minutes and then stopped by adding SDS gel loading buffer and boiled for 5 minutes. Reactions were run on SDS-PAGE (10%) and transferred to nitrocellulose membranes and probed with HRP-Streptavidin.
Candidate compounds were tested in duplicate at both 10 and 100 μM against the E3 ligase cascades βTrCP(IκBα) and βTrCP(β-catenin). The E3 assays were carried out according to the component concentrations detailed in Table 9. In each case the E2 was HA,6His-UbcH3-(hu,FL), the E1 was 6His-UBE1-(hu,FL) and the ubiquitin (Sigma U6253) was biotinylated at a 5:1 ratio. Substrate phosphorylation was performed in the absence of compound; consequently any observed signal modulation should not reflect inhibition of the up-stream kinase reaction. All other steps (E1, E2 and substrate ubiquitination) were carried out in the presence of compound. The stopped reaction mix (10 μl) was added to an ECL plate loaded with anti c-Myc ( 1/500 Dilution, Millipore 05-724) and blocked with 5% BSA. Binding was allowed to proceed for 1 hour at RT before a wash step (3 40 μl PBST washes). Detection was achieved by binding SA-Ru TAG at 1 μg/ml (1 hour @ RT, 3 40 μl PBST washes) before reading on an MSD Sector Imager 6000.
Assays were performed as described above

The next assay concerns the target Skp2 (Homo sapiens, UniProt Q13309). The assay is described as follows: Selectivity assay vs other E3s: Skp2. The format is biochemical. Particulars: for inhibition at 100 µM: read-out: % Inhibition Skp2 @ (100 μM); for inhibition at 10 µM: read-out: % Inhibition Skp2 @ 10 μM. How it is done:
as §1, §2
(§3) Candidate compounds were tested for inhibition of Fbw7 and Skp2 as described above.

For another assay, the target named is FBW7/Skp1 (Homo sapiens, UniProt Q969H0). Put plainly: Selectivity assay vs other E3s: Fbw7. Format: biochemical. The settings on record: for inhibition at 100 µM: read-out: % Inhibition Fbw7 @ (100 μM); for inhibition at 10 µM: read-out: % Inhibition Fbw7 @ 10 μM. How it is done:
as §1, §2
FBW7 selectivity assays were performed in the same manner except using FBW7/Skp1 as E3 component and cyclin E as the substrate. Blots were probed using anti-cyclin E antibody.
as §3

[3] abbreviates: Table 11, with spread, read-out: FP IC50/μM.
[4] abbreviates: Tables 1, 3, 7, 8, 10 nM fluorescein-tagged IκB peptide, read-out: FP Assay IC50/μM.

Chain of FBW7/Skp1 (Q969H0 whole entry, species assumed): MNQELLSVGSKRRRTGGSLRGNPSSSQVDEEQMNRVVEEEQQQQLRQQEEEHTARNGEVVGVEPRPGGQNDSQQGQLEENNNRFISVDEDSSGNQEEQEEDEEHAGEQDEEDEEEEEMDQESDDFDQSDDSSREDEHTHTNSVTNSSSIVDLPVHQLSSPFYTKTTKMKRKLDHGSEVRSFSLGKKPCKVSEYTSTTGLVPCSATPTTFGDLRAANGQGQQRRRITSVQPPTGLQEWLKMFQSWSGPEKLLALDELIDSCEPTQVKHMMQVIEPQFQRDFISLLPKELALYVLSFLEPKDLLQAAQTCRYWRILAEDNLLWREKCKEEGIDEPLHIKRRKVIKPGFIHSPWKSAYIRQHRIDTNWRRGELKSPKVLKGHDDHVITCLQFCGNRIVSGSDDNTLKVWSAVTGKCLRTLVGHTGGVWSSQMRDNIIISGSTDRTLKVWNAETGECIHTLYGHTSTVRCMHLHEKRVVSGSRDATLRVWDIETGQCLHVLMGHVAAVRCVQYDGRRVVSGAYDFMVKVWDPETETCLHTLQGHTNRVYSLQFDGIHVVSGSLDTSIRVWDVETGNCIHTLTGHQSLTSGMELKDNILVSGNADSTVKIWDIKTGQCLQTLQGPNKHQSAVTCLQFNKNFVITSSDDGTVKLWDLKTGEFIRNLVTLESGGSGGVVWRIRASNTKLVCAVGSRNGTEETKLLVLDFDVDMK
Chain of FBW7/Skp1 (P63208 whole entry partner, species assumed): as the sequence (P63208 whole entry partner, one chain of several) above
Chain of FBW7/Skp1 (Q13616 whole entry partner, species assumed): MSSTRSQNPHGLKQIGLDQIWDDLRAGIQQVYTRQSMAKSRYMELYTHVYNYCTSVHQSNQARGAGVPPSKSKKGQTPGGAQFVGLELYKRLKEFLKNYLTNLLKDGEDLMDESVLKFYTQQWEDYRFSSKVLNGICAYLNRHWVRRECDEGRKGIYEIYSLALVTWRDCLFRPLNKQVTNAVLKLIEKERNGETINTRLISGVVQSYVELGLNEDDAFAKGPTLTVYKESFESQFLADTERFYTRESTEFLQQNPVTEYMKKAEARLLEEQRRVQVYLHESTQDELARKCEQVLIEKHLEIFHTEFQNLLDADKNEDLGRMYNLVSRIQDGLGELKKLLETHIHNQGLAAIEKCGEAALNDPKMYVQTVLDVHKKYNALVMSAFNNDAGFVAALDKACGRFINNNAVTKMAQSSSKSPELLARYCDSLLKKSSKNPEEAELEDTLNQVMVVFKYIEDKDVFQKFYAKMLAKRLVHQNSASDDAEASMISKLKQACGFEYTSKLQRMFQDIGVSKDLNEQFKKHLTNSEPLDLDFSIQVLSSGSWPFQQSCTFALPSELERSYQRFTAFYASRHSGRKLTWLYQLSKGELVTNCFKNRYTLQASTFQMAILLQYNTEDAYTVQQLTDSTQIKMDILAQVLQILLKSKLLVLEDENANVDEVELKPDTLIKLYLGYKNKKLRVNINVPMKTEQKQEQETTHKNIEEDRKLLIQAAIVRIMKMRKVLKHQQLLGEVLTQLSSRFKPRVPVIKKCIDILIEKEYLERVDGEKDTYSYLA
Chain of FBW7/Skp1 (P62877 whole entry partner, species assumed): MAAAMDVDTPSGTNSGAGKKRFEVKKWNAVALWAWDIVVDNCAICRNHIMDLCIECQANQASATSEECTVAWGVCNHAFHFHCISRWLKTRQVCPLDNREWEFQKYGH
Chain of β-TrCP1/Skp1 (P63208 2-163 partner limits assumed, one chain of several): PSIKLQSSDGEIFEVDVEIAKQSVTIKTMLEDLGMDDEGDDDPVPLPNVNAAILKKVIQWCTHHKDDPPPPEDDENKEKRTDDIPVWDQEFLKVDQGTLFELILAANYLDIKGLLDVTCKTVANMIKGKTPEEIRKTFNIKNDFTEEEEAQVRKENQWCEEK
Chain of Skp2 (Q13309 whole entry, species assumed): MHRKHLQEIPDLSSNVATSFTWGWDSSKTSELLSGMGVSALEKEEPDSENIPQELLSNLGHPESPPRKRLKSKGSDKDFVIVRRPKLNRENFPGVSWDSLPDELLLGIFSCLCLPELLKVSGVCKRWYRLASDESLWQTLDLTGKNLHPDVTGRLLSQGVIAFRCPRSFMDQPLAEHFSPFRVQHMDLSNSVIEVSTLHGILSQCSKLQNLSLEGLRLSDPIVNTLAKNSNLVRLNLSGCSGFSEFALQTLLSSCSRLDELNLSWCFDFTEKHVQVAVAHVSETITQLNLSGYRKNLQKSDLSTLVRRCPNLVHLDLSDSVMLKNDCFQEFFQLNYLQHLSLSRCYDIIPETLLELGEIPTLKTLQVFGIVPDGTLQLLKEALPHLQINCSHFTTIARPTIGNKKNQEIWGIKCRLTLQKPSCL
Chain of Skp2 (P63208 whole entry partner, species assumed): as the sequence (P63208 whole entry partner, one chain of several) above
Chain of Skp2 (Q13616 whole entry partner, species assumed): as the sequence (Q13616 whole entry partner, species assumed) above
Chain of Skp2 (P62877 whole entry partner, species assumed): as the sequence (P62877 whole entry partner, species assumed) above

In the case of `NC(=O)[C@H](CCC(=O)O)NC(=O)[C@H](Cc1ccccc1)NC(=O)[C@H](Cc1ccccc1)NC(=O)CNC(=O)[C@H](CCC(=O)O)NC(=O)CCC(=O)O` [UBP002, Suc-EGFFE-NH2] (Suc-EGFFE-NH2), the IC50 on βTrCP [1] (setting [3]) was 3.18 ± 0.357 µM. In addition, at βTrCP [1] (Tables 1, 3, 7, 8, 10 nM fluorescein-tagged IκB peptide), the “FP Assay IC50/μM” value is reported as “low μM inhibitor”. Besides, at βTrCP [2], the “Biotin Pulldown Assay 10 μM” value is recorded as “no effect/” and the “Biotin Pulldown Assay 100 μM” value is given as “reduces”. For the same molecule, on β-TrCP1/Skp1, the “Ub Assay 10 μM” value was “reduces/” and the “Ub Assay 100 μM” value is “inhibits”. The inhibition at 100 µM on Skp2 (100 μM, value in brackets) is 0%. Further, the inhibition at 10 µM on Skp2 amounted to 14%. Also, the inhibition at 100 µM at FBW7/Skp1 (100 μM, value in brackets) was 0%. The inhibition at 10 µM at FBW7/Skp1 came to 0%.
On to `CC(=O)N[C@H](CC(=O)O)C(=O)N[C@@H](CCC(=O)O)C(=O)NCC(=O)N[C@@H](Cc1cccc(F)c1)C(=O)N[C@@H](Cc1cccc2ccccc12)C(=O)N[C@@H](CCC(=O)O)C(N)=O` [UBP016, Ac-dEGF(3F)1NalE-NH2] (Ac-[dD]EG[Phe(3-F)][1Nal]E-NH2), for which the IC50 at βTrCP [1] (setting [3]) is 0.112 ± 0.017 µM. For the same molecule, at βTrCP [2], the “Biotin Pulldown Assay 10 μM” value is “reduces/” and the “Biotin Pulldown Assay 100 μM” value is “inhibits”. For the same molecule, on β-TrCP1/Skp1, the “Ub Assay 10 μM” value is on record as “reduces/” and the “Ub Assay 100 μM” value is recorded as “inhibits”. Further, the inhibition at 100 µM on Skp2 (100 μM, value in brackets) came to 7%. Further, the inhibition at 10 µM on Skp2 was 0%. For the same molecule, on FBW7/Skp1 (100 μM, value in brackets), the inhibition at 100 µM worked out at 8%. The inhibition at 10 µM on FBW7/Skp1 came out at 3%.
Turning to `CC(=O)N[C@H](CC(=O)O)C(=O)N[C@@H](CCC(=O)O)C(=O)NCC(=O)N[C@@H](Cc1cccc(F)c1)C(=O)N[C@@H](Cc1c[nH]c2ccccc12)C(=O)N[C@@H](CCC(=O)O)C(N)=O` [UBP017, Ac-dEGF(3F)WE-NH2] (Ac-[dD]EG[Phe(3-F)]WE-NH2), the IC50 at βTrCP [1] (setting [3]) stood at 0.102 ± 0.017 µM; at βTrCP [1] (setting [4]), 0.102 µM. Besides, the “Biotin Pulldown Assay 10 μM” value at βTrCP [2] was “reduces/”. The “Biotin Pulldown Assay 100 μM” value at βTrCP [2] is on record as “inhibits”. The “Ub Assay 10 μM” value at β-TrCP1/Skp1 is listed as “reduces/”. On β-TrCP1/Skp1, the “Ub Assay 100 μM” value was “inhibits”. The inhibition at 100 µM was 27% at Skp2 (100 μM, value in brackets) and 0% on FBW7/Skp1 (100 μM, value in brackets). The inhibition at 10 µM at Skp2 was 10%; at FBW7/Skp1 it was 3%.
`NC(=O)[C@H](CCC(=O)O)NC(=O)[C@H](Cc1c[nH]c2ccccc12)NC(=O)[C@H](Cc1cccc(F)c1)NC(=O)CNC(=O)[C@H](CCC(=O)O)NC(=O)[C@@H](CC(=O)O)NC(=O)c1ccccc1` [UBP018, Bz-dEGF(3F)WE-NH2] (Bz-[dD]EG[Phe(3-F)]WE-NH2) registered an IC50 on βTrCP [1] (FP Assay IC50/μM, Tables 1, 3, 7, 8, 10 nM fluorescein-tagged IκB peptide) of 0.173 µM. At βTrCP [1] (FP IC50/μM, Table 11, with spread), the IC50 was determined as 0.173 ± 0.072 µM. At βTrCP [2], the “Biotin Pulldown Assay 10 μM” value is “reduces/” and the “Biotin Pulldown Assay 100 μM” value was “inhibits”. Further, on β-TrCP1/Skp1, the “Ub Assay 10 μM” value was “reduces/” and the “Ub Assay 100 μM” value is reported as “inhibits”. In addition, on Skp2, the inhibition at 10 µM came to 0% and the inhibition at 100 µM worked out at 0%. Besides, at FBW7/Skp1, the inhibition at 10 µM came out at 0% and the inhibition at 100 µM was 5%.
For the molecule `CCC(=O)N[C@H](CC(=O)O)C(=O)N[C@@H](CCC(=O)O)C(=O)NCC(=O)N[C@@H](Cc1cccc(F)c1)C(=O)N[C@@H](Cc1c[nH]c2ccccc12)C(=O)N[C@@H](CCC(=O)O)C(N)=O` [UBP019, Et(CO)-dEGF(3F)WE-NH2] (Propionyl-[dD]EG[Phe(3-F)]WE-NH2), the values for the IC50 on βTrCP [1] (setting [3]) and on βTrCP [1] (setting [4]) were 0.145 ± 0.026 µM and 0.145 µM, respectively. Also, on βTrCP [2], the “Biotin Pulldown Assay 10 μM” value is “reduces/”. Besides, the “Biotin Pulldown Assay 100 μM” value on βTrCP [2] was “inhibits”. Also, on β-TrCP1/Skp1, the “Ub Assay 10 μM” value was “reduces/”. Moreover, the “Ub Assay 100 μM” value at β-TrCP1/Skp1 is “inhibits”. Also, the inhibition at 100 µM on Skp2 (100 μM, value in brackets) turned out to be 10%; at FBW7/Skp1 (100 μM, value in brackets) it was 10%. Also, the inhibition at 10 µM is 1% at Skp2 and 0% at FBW7/Skp1.

What is called inhibition is the relative decrease from the control value, in per cent.
